Laboratory results as given in patent US10471048B2, “Thienopyridine derivative for the treatment of hepatitis C infections” (Cipla (UK) Limited, priority 2015, dated 2019).

Key:
[1] = HCV replicon assay, cell viability (CytoTox-1); conditions: human, Huh7 hepatoma cells containing a subgenomic HCV replicon
Experimental: We use the subgenomic HCV replicons of genotype 1a (H77 strain), 1b (Con1 strain), and 2a (JFH-1 strain), which are Huh7 human hepatoma cell lines that contains an HCV replicon.
Briefly, the replicon cells are plated at 5,000 cells/well into 96-well plates that are dedicated for the analysis of cell numbers (cytotoxicity) or antiviral activity. On the following day, samples are diluted with assay media and added to the appropriate wells. Cells are processed 72 hours later when the cells are still sub-confluent. […] The concentration of drug that reduces cell viability is assessed by the fluorometric CytoTox-1 cell proliferation assay (Promega), (expressed as cell numbers). […] Where applicable EC50 (concentration inhibiting HCV replicon by 50%), EC90 (concentration inhibiting HCV replicon by 90%), CC50 (concentration decreasing cell viability by 50%), CC90 (concentration decreasing cell viability by 90%) and SI (selectivity indices: CC50/EC50 and CC90/EC90) values are derived.

HCV GT1b CON-1 replicon = assay: HCV replicon assay (antiviral activity); format: cell-based, Hepatitis C virus; conditions: In vitro HCV replicon assay
Source text: The HCV replicon antiviral evaluation assay examines the effects of compound at six serial dilutions. Human interferon alpha-2b (rIFNα-2b) and Sofosbuvir are included in each run as a positive control compound.

[2] = Infectious HCVcc assay, cell viability (CytoTox-1); conditions: human, Huh7.5 cells infected with cell culture-derived HCV (HCVcc)
Experimental: (§1) Huh7.5 cells are grown in Dulbecco's modified essential media (DMEM), 10% fetal bovine serum (FBS), 1% penicillin-streptomycin (pen-strep), 1% Non-essential amino acids (NEAA) in a 5% CO2 incubator at 37° C. Huh7.5 cells are seeded at 1×10^4 cells per well into 96-well plates according to Southern Research Institute standard format. Test articles are serially diluted with DMEM plus 5% FBS. The diluted compound in the amount of 50 μl is mixed with equal volume of cell culture-derived HCV (HCVcc), then applied to appropriate wells in the plate. Human interferon alpha-2b (rIFNα-2b) and/or Sofosbuvir are included as a positive control. After 72 hr incubation at 37° C., the cells are lysed for measurement of luciferase activity using Renilla Luciferase Assay System (Promega) according to manufacturer's instruction. The number of cells in each well is determined by CytoTox-1 reagent (Promega).

[3] = tested on: cell culture-derived HCV (HCVcc); assay: microbe, parasite or virus in culture; format: cell-based, Hepatitis C virus
Experimental: as §1

SMILES: CC(=O)Oc1cc2c(s1)CCN(C(C(=O)C1CC1)c1ccccc1F)C2.Cl (racemic) [Prasugrel, 5-[(1RS)-2-cyclopropyl-1-(2-fluorophenyl)-2-oxoethyl]-4,5,6,7-tetrahydrothieno[3,2-c]pyridin-2-yl acetate hydrochloride]
- CC50 at 72 h [1]: 88.5 µM
- EC50 (HCV GT1b CON-1 replicon; Hepatitis C virus, GT1B, concentration inhibiting HCV replicon by 50%, 72 hours): 47.1 µM
- Selectivity index (HCV GT1b CON-1 replicon; CC50/EC50): 1.88
- CC50 at 72 h [2]: > 100 µM
- EC50 ([3]; Hepatitis C virus, 72 h): 9.71 µM
- Selectivity index ([3]; In vitro HCVcc assay, CC50/EC50): >10.3
